Assay [1] deals with T1, Lipoprotein lipase (Bos taurus) (UniProt P11151).
T1 sequence (whole entry): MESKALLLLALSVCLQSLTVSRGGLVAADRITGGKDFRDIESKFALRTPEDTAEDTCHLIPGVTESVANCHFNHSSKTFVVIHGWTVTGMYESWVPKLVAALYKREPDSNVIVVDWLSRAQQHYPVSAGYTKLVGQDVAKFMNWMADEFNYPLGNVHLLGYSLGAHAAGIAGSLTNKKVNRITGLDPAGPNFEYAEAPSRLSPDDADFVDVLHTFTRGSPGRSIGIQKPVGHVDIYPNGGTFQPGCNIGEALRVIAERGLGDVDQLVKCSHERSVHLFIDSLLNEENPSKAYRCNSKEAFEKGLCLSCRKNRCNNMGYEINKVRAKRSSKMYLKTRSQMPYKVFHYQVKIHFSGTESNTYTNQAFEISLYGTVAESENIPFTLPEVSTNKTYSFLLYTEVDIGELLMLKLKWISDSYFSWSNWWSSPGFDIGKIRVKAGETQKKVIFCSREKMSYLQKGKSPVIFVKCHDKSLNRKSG
The assay can be described thus: Percent inhibition of compound against Lipoprotein lipase(LPL) was evaluated; No significant inhibition.

Assay [2] has as its target T1, Lipoprotein lipase (Bos taurus). The assay can be described thus: Percent inhibition of compound against Lipoprotein lipase(LPL) at 10 uM was evaluated.
The target is the same in assay [3]. The assay can be described thus: Percent inhibition of compound against Lipoprotein lipase(LPL) at 3h was evaluated. To be noted: concentration not given here.

Consider four molecules from ChEMBL document CHEMBL1132729.

The structures appear in SMILES notation. Activity calls are given as the source filed them. The rule behind the calls is not given here.

Consider `CCCCCCS(=O)(=O)ON1C(=O)CCC1=O`, for which the inhibition entry in assay [1] was “No inhibition”.
Still for that read-out and setting: next, `CCCCCCCCCCCCS(=O)(=O)F`: “inactive”.
The same measure, in the same setting: next, `CCCCCCS(=O)(=O)Oc1ccc([N+](=O)[O-])cc1`: “No inhibition”.
Take `CCCCCCCCCCCCCCCCS(=O)(=O)F`: the inhibition in assay [2] worked out at 50%; in assay [3], 90%.
